Active and inactive are the calls of the source. The calls are words filed in the database; no cut-off is given here. *1 amine or outer side, *2 acyl side, *3 side chain or, on linkers, in order; H or OH if unused. Where a SMILES comes first, the peptide text is derived from it. Side-chain parts run from the residue outwards. The star is where a group is joined. NH(CH2)3O(βDGlc) = OC[C@H]1O[C@@H](OCCCN*)[C@H](O)[C@@H](O)[C@@H]1O; Glutaryl = O=C(CCCC(=O)[*:2])[*:1]; Lauroyl = CCCCCCCCCCCC(=O)*
Tests used:
B16-F10 [1] = test: Induction of cell membrane disruption in mouse B16-F10 cells incubated for 24 hrs by SYTO 9/PI staining based fluorescence microscopy; format: functional
Homo sapiens = species on record: Homo sapiens; test: Binding affinity to membrane (unknown origin) assessed as binding free energy
[2] = target: T1, Solute carrier family 2, facilitated glucose transporter member 1 (Homo sapiens) (UniProt P11166); test: Induction of GLUT1-mediated human HeLa cell cytotoxicity assessed as cell viability at 12.5 uM incubated for 24 hrs by CCK-8 assay
T1 sequence (whole entry): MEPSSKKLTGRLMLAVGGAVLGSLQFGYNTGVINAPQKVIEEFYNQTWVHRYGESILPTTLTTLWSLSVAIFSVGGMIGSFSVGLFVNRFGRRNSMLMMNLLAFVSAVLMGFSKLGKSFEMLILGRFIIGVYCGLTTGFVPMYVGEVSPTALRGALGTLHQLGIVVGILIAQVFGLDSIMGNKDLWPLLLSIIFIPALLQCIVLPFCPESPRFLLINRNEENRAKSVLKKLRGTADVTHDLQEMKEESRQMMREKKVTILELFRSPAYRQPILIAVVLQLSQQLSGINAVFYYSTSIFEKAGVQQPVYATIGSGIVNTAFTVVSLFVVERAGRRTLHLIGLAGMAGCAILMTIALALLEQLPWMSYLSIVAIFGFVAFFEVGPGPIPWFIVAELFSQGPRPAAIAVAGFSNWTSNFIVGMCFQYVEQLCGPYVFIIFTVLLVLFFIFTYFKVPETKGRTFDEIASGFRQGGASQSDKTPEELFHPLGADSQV

[3] = Toxicity in BALB/c mouse implanted in mouse B16-F10 cells assessed as body weight change at 15 mg/kg, ip administered for days; format: organism-based; settings: in vivo
B16-F10 [4] = test: Cytotoxicity against mouse B16-F10 cells assessed as inhibition of spheroid proliferation at 5 uM after 3 days by 3D-shperoid assay relative to control; format: functional, cell-based; settings: time 3.0 day
B16-F10 [5] = test: Induction of cell membrane disruption in mouse B16-F10 cells assessed as membrane permeability at 5 uM incubated for 24 hrs by trypan blue staining based light microscopy; format: functional
B16-F10 [6] = test: Antitumor activity against mouse B16-F10 cells implanted in BALB/c mouse assessed as reduction in tumor volume at 15 mg/kg, ip administered for every 2 days; format: functional, organism-based; settings: time 2.0 day
[7] = target: T1, Solute carrier family 2, facilitated glucose transporter member 1 (Homo sapiens); test: Binding affinity to GLUT1 (unknown origin) assessed as binding free energy
B16-F10 [8] = test: Cytotoxicity against mouse B16-F10 cells assessed as cell viability after 24 hrs by CCK-8 assay; format: functional, cell-based; settings: B16-F10, 24 h
B16-F10 [9] = test: Induction of GLUT1-mediated mouse B16-F10 cell cytotoxicity assessed as cell viability at 3.125 uM incubated for 24 hrs by CCK-8 assay
B16-F10 [10] = test: Antimetastatic activity against mouse B16-F10 cells implanted in KM mouse assessed as reduction lung metastatic nodules at 200 microL of 10 mg/kg, iv administered once every 2 days by H and E staining method; format: functional, organism-based; settings: time 2.0 day
B16-F10 [11] = test: Antitumor activity against mouse B16-F10 cells implanted in KM mouse assessed as metastatic nodules in lungs at 10 mg/kg, iv administered for every 2 days measured after 9 days; format: functional, organism-based; settings: time 9.0 day
[12] = Stability in 10% fetal bovine serum measured after 24 hrs; format: ADME, cell-free, Bos taurus; settings: cattle
B16-F10 [13] = test: Antiinvasive activity against mouse B16-F10 cells assessed as inhibition of cell migration at 0.75 to 1.5 microM incubated for 72 hrs by transwell migration assay; format: functional, cell-based; settings: dose 0.75-1.5 µM
[14] = Toxicity in BALB/c mouse implanted in mouse B16-F10 cells assessed as pathological changes in spleen at 15 mg/kg, ip administered for days by H& E staining based assay; format: organism-based; settings: in vivo
B16-F10 [15] = test: Induction of cell membrane disruption in mouse B16-F10 cells assessed as shrunken morphology at 5 uM incubated for 24 hrs by scanning electron microscopy; format: functional, cell-based
[16] = target: T1, Solute carrier family 2, facilitated glucose transporter member 1 (Homo sapiens); test: Binding affinity to GLUT1 (unknown origin) membrane assessed as free energy
[17] = Toxicity in BALB/c mouse implanted in mouse B16-F10 cells assessed as pathological changes in liver at 15 mg/kg, ip administered for days by H& E staining based assay; format: organism-based; settings: in vivo
B16-F10 [18] = test: Anti-migration activity against mouse B16-F10 cells assessed as inhibition of spheroid migration at 2.5 uM after 3 days by crystal violet staining based assay; format: functional, cell-based; settings: time 3.0 day
[19] = Toxicity in BALB/c mouse implanted in mouse B16-F10 cells assessed as pathological changes in heart at 15 mg/kg, ip administered for days by H& E staining based assay; format: organism-based; settings: in vivo
[20] = Toxicity in KM mouse implanted in mouse B16-F10 cells assessed as body weight change at 10 mg/kg, iv administered for days; format: organism-based; settings: in vivo
B16-F10 [21] = test: Antitumor activity against mouse B16-F10 cells implanted in BALB/c mouse assessed as apoptotic cells in tumor tissue at 15 mg/kg, ip administered for 12 days by TUNEL assay; format: functional, organism-based; settings: time 12.0 day
[22] = target: T1, Solute carrier family 2, facilitated glucose transporter member 1 (Homo sapiens); test: Induction of GLUT1-mediated HEK293T cytotoxicity assessed as cell viability at 3.125 uM incubated for 24 hrs by CCK-8 assay
B16-F10 [23] = test: Cytotoxicity against mouse B16-F10 cells assessed as LDH release at 3.125 to 6.25 uM incubated for 24 hrs by LDH assay; format: functional, cell-based; settings: dose 3.125-6.25 µM
[24] = target: T1, Solute carrier family 2, facilitated glucose transporter member 1 (Homo sapiens); test: Induction of GLUT1-mediated human A549 cell cytotoxicity assessed as cell viability at 12.5 uM incubated for 24 hrs by CCK-8 assay
MCF7 = test: Cytotoxicity against human MCF7 cells assessed as cell viability measured after 24 hrs by CCK-8 assay; format: functional, cell-based; settings: MCF7, 24 h
MX1 = test: Cytotoxicity against human MX1 cells assessed as cell viability measured after 24 hrs by CCK-8 assay; format: functional, cell-based; settings: MX1, 24 h
MDA-MB-231 = test: Cytotoxicity against human MDA-MB-231 cells assessed as cell viability measured after 24 hrs by CCK-8 assay; format: functional, cell-based; settings: MDA-MB-231, 24 h
B16-F10 [25] = test: Antiinvasive activity against mouse B16-F10 cells assessed as inhibition of cell migration at 0.75 microM incubated for 72 hrs by Matrigel based transwell invasion assay; format: functional
B16-F10 [26] = test: Antiproliferative activity against mouse B16-F10 cells assessed as inhibition of colony formation incubated for 12 days by crystal violet dye based assay; format: functional, cell-based; settings: B16-F10, 288 h
B16-F10 [27] = test: Cytotoxicity against GLUT1 - knocked down mouse B16-F10 cells assessed as cell viability after 24 hrs by CCK-8 assay; format: functional, cell-based

Compound: CCCCCCCCCCCC(=O)N[C@@H](CCCNC(=N)N)C(=O)NCC(=O)N[C@@H](Cc1c[nH]c2ccccc12)C(=O)N[C@@H](Cc1ccccc1)C(=O)N[C@@H](CCCNC(=N)N)C(=O)N[C@@H](C)C(=O)N[C@@H](CCSC)C(=O)N[C@@H](CCCNC(=N)N)C(=O)N[C@@H](CO)C(=O)N[C@H](C(=O)N[C@@H](C)C(=O)N[C@@H](CCCNC(=N)N)C(=O)N[C@@H](Cc1ccccc1)C(=O)N[C@H](C(=O)N[C@@H](C)C(=O)N[C@@H](CCCNC(=N)N)C(=O)N[C@@H](CCC(=O)O)C(=O)N[C@@H](CCCNC(=N)N)C(=O)N[C@@H](CC(C)C)C(=O)N[C@@H](CCCNC(=N)N)C(=O)N[C@@H](CCC(=O)O)C(=O)N[C@@H](Cc1cnc[nH]1)C(=O)N[C@@H](CC(C)C)C(N)=O)[C@@H](C)CC)[C@@H](C)CC (HELM PEPTIDE1{[CCCCCCCCCCCC(=O)[*:2]].R.G.W.F.R.A.M.R.S.I.A.R.F.I.A.R.E.R.L.R.E.H.L.[am]}$$$$V2.0)
- Activity (B16-F10 [1]): Active
- deltaG (Homo sapiens): -65.7 kcal/mol
- Activity [2]: Active
- Activity [3]: Non-Toxic
- Activity (B16-F10 [4]): Active
- Activity (B16-F10 [5]): Active
- Activity (B16-F10 [6]): inactive
- deltaG [7]: -66.4 kcal/mol
- IC50 (B16-F10 [8]): 3 µM
- Activity (B16-F10 [9]): Active
- Activity (B16-F10 [10]): inactive
- Activity (B16-F10 [11]): inactive
- Stability [12]: Stable
- Activity (B16-F10 [13]): inactive
- Activity [14]: Non-Toxic
- Activity (B16-F10 [15]): Active
- deltaG [16]: -67.5 kcal/mol
- Activity [17]: Non-Toxic
- Activity (B16-F10 [18]): Active
- Activity [19]: Non-Toxic
- Activity [20]: Non-Toxic
- Activity (B16-F10 [21]): Active
- Activity [22]: Active
- Activity (B16-F10 [23]): Active
- Activity [24]: Active

Compound: CCCCCCCCCCCCCCCC(=O)N[C@@H](CCCNC(=N)N)C(=O)N[C@@H](Cc1c[nH]c2ccccc12)C(=O)N[C@@H](CCCCN)C(=O)N[C@H](C(=O)N[C@@H](Cc1ccccc1)C(=O)N[C@@H](CCCCN)C(=O)N[C@@H](CCCCN)C(=O)N[C@H](C(=O)N[C@@H](CCC(=O)O)C(=O)N[C@@H](CCCCN)C(=O)N[C@H](C(=O)NCC(=O)N[C@@H](CCC(N)=O)C(=O)N[C@@H](CC(N)=O)C(=O)N[C@H](C(=O)N[C@@H](CCCNC(=N)N)C(=O)N[C@@H](CC(=O)O)C(=O)NCC(=O)N[C@H](C(=O)N[C@H](C(=O)N[C@@H](CCCCN)C(=O)N[C@@H](C)C(=O)NCC(=O)N1CCC[C@H]1C(=O)N[C@@H](C)C(=O)N[C@H](C(=O)N[C@@H](C)C(=O)N[C@H](C(=O)N[C@H](C(=O)NCC(=O)N[C@@H](CCC(N)=O)C(=O)N[C@@H](C)C(=O)N[C@@H](C)C(=O)N[C@H](C(=O)N[C@H](C(N)=O)[C@@H](C)CC)[C@@H](C)O)C(C)C)C(C)C)C(C)C)C(C)C)[C@@H](C)CC)[C@@H](C)CC)C(C)C)[C@@H](C)CC)[C@@H](C)CC (HELM PEPTIDE1{[CCCCCCCCCCCCCCCC(=O)[*:2]].R.W.K.I.F.K.K.I.E.K.V.G.Q.N.I.R.D.G.I.V.K.A.G.P.A.V.A.V.V.G.Q.A.A.T.I.[am]}$$$$V2.0)
- IC50 (MCF7): < 8 µM
- IC50 (MX1): < 8 µM
- IC50 (MDA-MB-231): < 8 µM

Compound: CCCCCCCCCCCC(=O)N[C@@H](CCCNC(=N)N)C(=O)NCC(=O)N[C@@H](Cc1c[nH]c2ccccc12)C(=O)N[C@@H](Cc1ccccc1)C(=O)N[C@@H](CCCNC(=N)N)C(=O)N[C@@H](C)C(=O)N[C@@H](CCSC)C(=O)N[C@@H](CCCNC(=N)N)C(=O)N[C@@H](CO)C(=O)N[C@H](C(=O)N[C@@H](C)C(=O)N[C@@H](CCCCNC(=O)CCCC(=O)NCCCO[C@@H]1O[C@H](CO)[C@@H](O)[C@H](O)[C@H]1O)C(=O)N[C@@H](Cc1ccccc1)C(=O)N[C@H](C(=O)N[C@@H](C)C(=O)N[C@@H](CCCNC(=N)N)C(=O)N[C@@H](CCC(=O)O)C(=O)N[C@@H](CCCNC(=N)N)C(=O)N[C@@H](CC(C)C)C(=O)N[C@@H](CCCNC(=N)N)C(=O)N[C@@H](CCC(=O)O)C(=O)N[C@@H](Cc1cnc[nH]1)C(=O)N[C@@H](CC(C)C)C(N)=O)[C@@H](C)CC)[C@@H](C)CC (Lauroyl-RGWFRAMRSIAK([Glutaryl-NH(CH2)3O(βDGlc)])FIARERLREHL-NH2)
- Activity (B16-F10 [1]): Active
- deltaG (Homo sapiens): -76.6 kcal/mol
- Activity [2]: Active
- Activity [3]: Non-Toxic
- Activity (B16-F10 [4]): Active
- Activity (B16-F10 [5]): Active
- Activity (B16-F10 [6]): Active
- deltaG [7]: -78 kcal/mol
- IC50 (B16-F10 [8]): 1.9 µM
- Activity (B16-F10 [9]): Active
- Activity (B16-F10 [10]): inactive
- Activity (B16-F10 [25]): Active
- IC50 (B16-F10 [26]): 0.37 µM
- Activity (B16-F10 [11]): Active
- Stability [12]: Stable
- Activity (B16-F10 [13]): Active
- Activity [14]: Non-Toxic
- Activity (B16-F10 [15]): Active
- deltaG [16]: -79.6 kcal/mol
- Activity (B16-F10 [27]): inactive
- Activity [17]: Non-Toxic
- Activity (B16-F10 [18]): Active
- Activity [19]: Non-Toxic
- Activity [20]: Non-Toxic
- Activity (B16-F10 [21]): Active
- Activity [22]: inactive
- Activity (B16-F10 [23]): Active
- Activity [24]: Active

Compound: H-RWKIFKKIEKVGQNIRDGIVKAGPAVAVVGQAATI-NH2
- IC50 (MCF7): < 8 µM
- IC50 (MX1): < 8 µM
- IC50 (MDA-MB-231): < 8 µM

From ChEMBL document CHEMBL5036332, “Glucose-Lipopeptide Conjugates Reveal the Role of Glucose Modification Position in Complexation and the Potential of Malignant Melanoma Therapy” (J Med Chem, 2021)
